Like-named read-outs stand apart in the source and are kept apart here.
Test: Phase 1/2a study, plasma pharmacokinetics of PF-07104091
Type: in vivo, human
Details: human, plasma, po; for Cmax: read-out: Cmax; for half-life: read-out: t1/2 (converted)
Text: Blood samples will be collected for measurement of plasma concentrations of PF-07104091 as specified in the protocol. Samples will be used to evaluate the PK of PF-07104091. Samples collected for analyses of PF-07104091 plasma concentration may also be used to evaluate safety or efficacy aspects related to concerns arising during or after the study, for metabolite identification and/or evaluation of the bioanalytical method, or for other internal exploratory purposes.
Plasma PF-07104091 concentrations will be summarized descriptively (n, mean, standard deviation, coefficient of variation, median, minimum, maximum, geometric mean and its associated coefficient of variation) by dose, cycle, day and nominal time. Individual participant plasma PF-07104091 concentration-time data within a dose interval (with exception of the food effect substudy) after Cycle 1 Day 1 and Cycle 1 Day 15 will be analyzed using noncompartmental methods to determine single and multiple dose PK parameters. For participants in the food effect substudy, individual plasma PF-07104091 concentration-time data after Cycle 1 Day 15 and Cycle 1 Day 16 will be analyzed using noncompartmental methods to determine multiple dose PK parameters. For Part 1 of the study, single dose PK parameters to be estimated will include the Cmax, Tmax, and AUClast, and if data permit, t1/2, CL/F, and Vz/F. Multiple dose PK parameters to be estimated will include Cmax,ss, Tmax,ss, AUCT,ss, Cmin,ss, CL/F,ss, and if data permit, V/Fss, t1/2, and Rac. For Part 2 of the study (with exception of the food effect substudy), single dose PK parameters to be estimated will include Cmax, Tmax and AUClast. Multiple dose PK parameters to be estimated will include Cmax,ss, Tmax,ss, AUClast, Cmin,ss, and Rac. The single dose and steady state PK parameters will be summarized descriptively (n, mean, standard deviation, coefficient of variation, median, minimum, maximum, geometric mean and its associated coefficient of variation) by dose level, cycle and day. For participants in the food effect substudy, multiple dose PK parameters to be estimated will include Cmax,ss, AUCT,ss, Tmax,ss, Cmin,ss, CL/Fss, and if data permit, V/Fss and t1/2.
An ongoing Phase 1/2a, open-label, multicenter, multiple dose study is being conducted to determine the safety, tolerability, PK, PD, and preliminary anti-tumor activity of PF-07104091 as a single agent and in combination with endocrine therapy. PF-07104091 is administered orally twice daily (BID) during 28-day cycles.
Preliminary concentration-time data of PF-07104091 following single and multiple oral administration at 75 mg BID to 500 mg BID as monotherapy or in combination with endocrine therapy alone or in combination with palbociclib and endocrine therapy were available from 44 participants with advanced solid tumors and HR-positive HER2-negative advanced or metastatic breast cancer. The preliminary concentration-time data were analyzed by noncompartmental approach using actual PK sampling times.
[…] Individual values are listed when the number of participants with available parameters is less than 3.

[1] = 150 mg, Cycle 1 Day 1, single oral dose, 150 mg BID monotherapy, geometric mean (CV %)
[2] = 150 mg, Cycle 1 Day 15, repeated BID oral, 150 mg BID monotherapy, geometric mean (CV %)
[3] = 225 mg, Cycle 1 Day 1, single oral dose, 225 mg BID monotherapy, geometric mean (CV %)
[4] = 225 mg, Cycle 1 Day 15, repeated BID oral, 225 mg BID monotherapy, geometric mean (CV %)
[5] = 300 mg, Cycle 1 Day 1, single oral dose, 300 mg BID monotherapy, geometric mean (CV %)
[6] = 300 mg, Cycle 1 Day 15, repeated BID oral, 300 mg BID monotherapy, geometric mean (CV %)
[7] = 375 mg, Cycle 1 Day 1, single oral dose, 375 mg BID monotherapy, individual values
[8] = 500 mg, Cycle 1 Day 1, single oral dose, 500 mg BID monotherapy, geometric mean (CV %)
[9] = 500 mg, Cycle 1 Day 15, repeated BID oral, 500 mg BID monotherapy, individual value, N = 1

What does the source list for `COCc1cc(C(=O)Nc2cc([C@H]3CC[C@@H](OC(=O)NC(C)C)C3)[nH]n2)n(C)n1` [PF-07104091, (1R,3S)-3-[3-({[3-(methoxymethyl)-1-methyl-1H-pyrazol-5-yl]carbonyl}amino)-1H-pyrazol-5-yl]cyclopentyl propan-2-ylcarbamate]?
Tmax (75 mg, Cycle 1 Day 15, repeated BID oral, 75 mg BID monotherapy, individual values, read-out: Tmax): 1.1 h; AUC(0-t) [1]: 4480 ng·h/mL; Cmax [1]: 739 ng/mL; Tmax (150 mg, Cycle 1 Day 1, single oral dose, 150 mg BID monotherapy, median (range), read-out: Tmax): 2 h; half-life (150 mg, Cycle 1 Day 1, single oral dose, 150 mg BID monotherapy, n = 1): 2.8 h; AUC(0-t) [2]: 8020 ng·h/mL; Cmax [2]: 1320 ng/mL; Tmax (150 mg, Cycle 1 Day 15, repeated BID oral, 150 mg BID monotherapy, median (range), read-out: Tmax): 2.2 h; half-life (150 mg, Cycle 1 Day 15, repeated BID oral, 150 mg BID monotherapy, n = 1): 1.9 h; half-life (225 mg, Cycle 1 Day 1, single oral dose, 225 mg BID monotherapy, arithmetic mean ± SD): 2.2 ± 0.7 h; AUC(0-t) [3]: 6630 ng·h/mL; Cmax [3]: 1390 ng/mL; Tmax (225 mg, Cycle 1 Day 1, single oral dose, 225 mg BID monotherapy, median (range), read-out: Tmax): 3.9 h; half-life (225 mg, Cycle 1 Day 15, repeated BID oral, 225 mg BID monotherapy, arithmetic mean ± SD): 2.6 ± 0.9 h; AUC(0-t) [4]: 10700 ng·h/mL; Cmax [4]: 2350 ng/mL; Tmax (225 mg, Cycle 1 Day 15, repeated BID oral, 225 mg BID monotherapy, median (range), read-out: Tmax): 2 h; half-life (300 mg, Cycle 1 Day 1, single oral dose, 300 mg BID monotherapy, arithmetic mean ± SD): 2 ± 0.6 h; AUC(0-t) [5]: 9110 ng·h/mL; Cmax [5]: 1820 ng/mL; Tmax (300 mg, Cycle 1 Day 1, single oral dose, 300 mg BID monotherapy, median (range), read-out: Tmax): 2 h; half-life (300 mg, Cycle 1 Day 15, repeated BID oral, 300 mg BID monotherapy, arithmetic mean ± SD): 2.8 ± 0.2 h; AUC(0-t) [6]: 12500 ng·h/mL; Cmax [6]: 2570 ng/mL; Tmax (300 mg, Cycle 1 Day 15, repeated BID oral, 300 mg BID monotherapy, median (range), read-out: Tmax): 2.1 h; AUC(0-t) [7]: 11600 ng·h/mL; Cmax [7]: 2520 ng/mL; Tmax (375 mg, Cycle 1 Day 1, single oral dose, 375 mg BID monotherapy, individual values, read-out: Tmax): 4 h; half-life (375 mg, Cycle 1 Day 1, single oral dose, 375 mg BID monotherapy, n = 1): 1.5 h; AUC(0-t) [8]: 15200 ng·h/mL; Cmax [8]: 2980 ng/mL; Tmax (500 mg, Cycle 1 Day 1, single oral dose, 500 mg BID monotherapy, median (range), read-out: Tmax): 5.3 h; AUC(0-t) [9]: 21500 ng·h/mL; Cmax [9]: 4420 ng/mL; Tmax (500 mg, Cycle 1 Day 15, repeated BID oral, 500 mg BID monotherapy, individual value, N = 1, read-out: Tmax): 4 h; Tmax (oral administration at doses up to 300 mg BID, read-out: median Tmax): 0.5 to 4 h

Reference: US20250127759A1, “METHODS AND DOSING REGIMENS COMPRISING A CDK2 INHIBITOR FOR THE TREATMENT OF CANCER” (PFIZER INC., priority 2021, published 2025)
